Among the data in ChEMBL document CHEMBL1148292 (J Med Chem, 2004) are Ki and IC50 values, retold here.

The target in test [1] is T1, Adenosine receptor A1 (Homo sapiens, UniProt P30542).
T1 sequence (P30542 whole entry): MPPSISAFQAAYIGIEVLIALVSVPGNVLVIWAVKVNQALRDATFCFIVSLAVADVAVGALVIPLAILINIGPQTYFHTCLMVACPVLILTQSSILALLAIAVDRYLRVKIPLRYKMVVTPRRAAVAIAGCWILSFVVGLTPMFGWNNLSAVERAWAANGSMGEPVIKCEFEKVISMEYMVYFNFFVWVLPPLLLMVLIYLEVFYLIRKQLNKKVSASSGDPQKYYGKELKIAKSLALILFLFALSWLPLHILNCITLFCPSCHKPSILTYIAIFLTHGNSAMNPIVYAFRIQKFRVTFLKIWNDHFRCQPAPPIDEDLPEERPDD
Description: Displacement of specific [3H]DPCPX binding at human adenosine A1 receptor expressed in CHO cells. Type of test: cell-based.

The target in test [2] is Adenosine receptor A2a (Homo sapiens, UniProt P29274). Briefly: Binding affinity of compound for displacement of specific [3H]ZM-241385 binding at human adenosine A2A receptor expressed in CHO cells. Format: cell-based.
The target of test [3] is T2, Adenosine receptor A3 (Homo sapiens, UniProt P0DMS8).
T2 sequence (P0DMS8 whole entry): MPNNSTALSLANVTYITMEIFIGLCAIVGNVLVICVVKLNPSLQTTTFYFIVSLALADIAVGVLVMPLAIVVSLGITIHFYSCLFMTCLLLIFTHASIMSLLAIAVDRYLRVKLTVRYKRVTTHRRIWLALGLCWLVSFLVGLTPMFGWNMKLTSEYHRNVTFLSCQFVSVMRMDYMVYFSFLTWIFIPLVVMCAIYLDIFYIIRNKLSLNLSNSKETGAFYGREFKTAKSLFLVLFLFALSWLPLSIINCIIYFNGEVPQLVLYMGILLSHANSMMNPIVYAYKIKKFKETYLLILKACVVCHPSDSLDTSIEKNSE
Description: Binding affinity of compound for displacement of specific [3H]MRE3008-F20 binding at human A3 receptors expressed in CHO cells. Type of test: cell-based.

The target in test [4] is T3, Adenosine receptor A2b (Homo sapiens, UniProt P29275).
T3 sequence (P29275 whole entry): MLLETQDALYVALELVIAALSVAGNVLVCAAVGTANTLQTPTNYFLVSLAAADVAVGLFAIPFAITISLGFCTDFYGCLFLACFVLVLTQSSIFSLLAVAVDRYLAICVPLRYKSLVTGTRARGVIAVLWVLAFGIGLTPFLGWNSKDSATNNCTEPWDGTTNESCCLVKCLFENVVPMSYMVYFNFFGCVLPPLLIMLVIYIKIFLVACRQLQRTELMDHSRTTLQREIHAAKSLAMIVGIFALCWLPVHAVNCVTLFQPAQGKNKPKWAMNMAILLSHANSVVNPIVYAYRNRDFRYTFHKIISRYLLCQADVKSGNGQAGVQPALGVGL
Description: Binding affinity of compound for displacement of specific [3H]- DPCPX binding at human A2B receptors expressed in HEK293 cells. Format: cell-based.

Test [5] deals with T3, Adenosine receptor A2b. Briefly: Binding affinity of compound for displacement of [3H]DPCPX binding in HEK293 membranes expressing human A2B adenosine receptors. (In general: Displacement assays read how much labelled ligand stays bound in the presence of the test substance.)
Test [6] addresses T3, Adenosine receptor A2b. Description: Inhibitory activity against cAMP production in CHO cells transfected with human A2B adenosine receptor. Type of test: functional, cell-based.

As a reminder, the Ki is the dissociation constant of the complex between target and ligand, obtained from inhibition or displacement. Lower therefore signals higher affinity. One may read the IC50 as the concentration at which inhibition is half-maximal. A lower IC50 goes with greater potency.

The structures appear in SMILES notation.

Chain of Adenosine receptor A2a (P29274 whole entry): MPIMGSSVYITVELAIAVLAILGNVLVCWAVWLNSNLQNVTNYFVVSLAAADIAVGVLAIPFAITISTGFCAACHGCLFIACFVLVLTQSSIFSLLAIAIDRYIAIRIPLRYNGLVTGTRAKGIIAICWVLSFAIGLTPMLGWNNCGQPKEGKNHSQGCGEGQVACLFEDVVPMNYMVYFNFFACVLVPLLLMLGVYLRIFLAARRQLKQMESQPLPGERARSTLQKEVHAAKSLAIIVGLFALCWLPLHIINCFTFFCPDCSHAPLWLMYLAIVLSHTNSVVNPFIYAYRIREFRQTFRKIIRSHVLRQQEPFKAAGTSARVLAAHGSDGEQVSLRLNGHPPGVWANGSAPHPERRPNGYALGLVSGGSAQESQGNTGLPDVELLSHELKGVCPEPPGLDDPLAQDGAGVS

As to `CCCn1c(=O)c2[nH]c(-c3cc(NC(=O)Cc4ccc(O)c(OC)c4)nn3C)nc2n(CCC)c1=O`, the Ki in test [1] and in test [2] was more than 1000 nM each time.

Compound `CCCn1c(=O)c2[nH]c(-c3cc(NC(=O)Cc4ccc(N(C)C)cc4)nn3C)nc2n(CCC)c1=O` registered a Ki in test [1] of more than 1000 nM.

As to `CCCn1c(=O)c2[nH]c(-c3cc(OCC(=O)Nc4ccc(C(C)=O)cc4)nn3C)nc2n(CCC)c1=O`, the Ki in test [3], in test [1] and in test [2] was more than 1000 nM in each case.

In turn, `CCCn1c(=O)c2[nH]c(-c3cc(OCC(=O)Nc4ccc(F)cc4)no3)nc2n(CCC)c1=O` showed a Ki in test [1] of more than 1000 nM.

Regarding `CCCn1c(=O)c2c(nc(-c3ccc(N)cc3)n2C)n(CCC)c1=O`, the Ki is 516 nM in test [4], more than 1000 nM in test [3], more than 1000 nM in test [1] and more than 1000 nM in test [2].

With `CCCn1c(=O)c2[nH]c(-c3cc(OCC(=O)Nc4ccc(C(C)CC)cc4)nn3C)nc2n(CCC)c1=O` (configuration not stated), the Ki in test [3] and in test [2] was more than 1000 nM in each case.

For `CCCn1c(=O)c2[nH]c(-c3ccc(NC(=O)Nc4cccc(OC)c4)cc3)nc2n(CCC)c1=O`, the Ki was 58 nM in test [4], more than 1000 nM in test [3], 1170 nM in test [1] and more than 1000 nM in test [2].

For the compound `CCCn1c(=O)c2[nH]c(-c3cc(NC(=O)Cc4ccc(F)c(F)c4)nn3C)nc2n(CCC)c1=O`, the Ki in test [4] was 78 nM.

For `CCCn1c(=O)c2[nH]c(-c3cc(OCC(=O)Nc4ccc(C)c(C)c4)nn3C)nc2n(CCC)c1=O`, the Ki in test [5] was 10 nM. Moreover, the IC50 in test [6] came to 40 nM.

Regarding `CCCn1c(=O)c2[nH]c(-c3cc(NC(=O)Cc4ccccc4)n(C)n3)nc2n(CCC)c1=O`, the Ki in test [5] was 34 nM; in test [3] it was more than 1000 nM; in test [2], more than 1000 nM.

In test [1], `CCCn1c(=O)c2[nH]c(-c3ccc(OCC(=O)Nc4ccc(I)cc4)nn3)nc2n(CCC)c1=O` showed a Ki of more than 1000 nM.

`CCCn1c(=O)c2[nH]c(-c3cc(NC(=O)Cc4ccccc4)nn3C)nc2n(CCC)c1=O` yielded a Ki in test [5] of 35 nM.

As to `CCCn1c(=O)c2nc(-c3ccc(N)cc3)[nH]c2n(CCC)c1=O`, the Ki in test [4] is 9 nM; in test [3] it was more than 1000 nM; in test [1], 65 nM; in test [2] it was more than 1000 nM.

On to `CCCn1c(=O)c2[nH]c(-c3cc(OCC(=O)Nc4ccc(N5CCOCC5)cc4)nn3C)nc2n(CCC)c1=O`, for which the Ki in test [1] is more than 1000 nM.

Take `Cn1nc(-c2nc3c([nH]2)c(=O)n(C)c(=O)n3C)cc1N`: the Ki in test [4] is 175 nM; in test [3] it was more than 1000 nM; in test [1] it was more than 1000 nM; in test [2] it was more than 1000 nM.

In the case of `CCCn1c(=O)c2[nH]c(-c3cc(OCC(=O)N4CCN(Cc5ccccc5)CC4)nn3C)nc2n(CCC)c1=O`, the Ki in test [3] and in test [2] was more than 1000 nM in each case.

In turn, `CCCn1c(=O)c2[nH]c(-c3cc(C(=O)O)n(C)n3)nc2n(CCC)c1=O` gave a Ki in test [1] of more than 1000 nM.

In turn, `CCCn1c(=O)c2[nH]c(-c3cc(OCC(=O)Nc4ccc(C)cc4)nn3C)nc2n(CCC)c1=O` yielded a Ki in test [5] of 19 nM. The same compound yielded an IC50 in test [6] of 75 nM.

In the case of `CCCn1c(=O)c2[nH]c(-c3cc(NC(=O)Cc4ccc(O)cc4)nn3C)nc2n(CCC)c1=O`, the Ki in test [1] is more than 1000 nM.

In turn, `CCCn1c(=O)c2[nH]c(-c3cc(OCC(=O)N4CCN(c5ccc(F)cc5)CC4)nn3C)nc2n(CCC)c1=O` had a Ki in test [1] of more than 1000 nM.

In test [5], `CCCn1c(=O)c2[nH]c(-c3cc(NC(=O)Cc4ccc(Cl)cc4)nn3C)nc2n(CCC)c1=O` displayed a Ki of 28 nM.

In turn, `CCCn1c(=O)c2[nH]c(-c3cc(OCC(=O)Nc4ccc(Br)cc4)nn3C)nc2n(CCC)c1=O` registered a Ki in test [5] of 20 nM.

Regarding `CCCn1c(=O)c2[nH]c(-c3ccc(NC(=O)Cc4ccccc4)cc3)nc2n(CCC)c1=O`, the Ki is 649 nM in test [4], more than 1000 nM in test [3], more than 1000 nM in test [1] and more than 1000 nM in test [2].

As to `CCCn1c(=O)c2[nH]c(-c3cc(OCC(=O)Nc4ccc(OC)cc4)no3)nc2n(CCC)c1=O`, the inhibitory constant (Ki) in test [1] was more than 1000 nM.

With `CCCn1c(=O)c2[nH]c(-c3cc(NC(=O)Cc4ccc(CC(C)C)cc4)nn3C)nc2n(CCC)c1=O`, in test [1], the inhibition constant Ki was more than 1000 nM.

As to `CCCn1c(=O)c2[nH]c(-c3ccc(NC(=O)Cc4ccc(OC)c(OC)c4)cc3)nc2n(CCC)c1=O`, the Ki in test [4] was 95 nM; in test [3], more than 1000 nM; in test [1] it was 1730 nM; in test [2], more than 1000 nM.

For the compound `CCCn1c(=O)c2[nH]c(-c3cc(NC(=O)Cc4ccc(C(F)(F)F)cc4)nn3C)nc2n(CCC)c1=O`, the Ki in test [4] came to 130 nM.

`CCCn1c(=O)c2nc(-c3ccc(NC(=O)Nc4cccc(Cl)c4)cc3)[nH]c2n(CCC)c1=O`: the Ki in test [4] is 110 nM; in test [3] it was more than 1000 nM; in test [1], 1360 nM; in test [2] it was more than 1000 nM.

Take `CCCn1c(=O)c2[nH]c(-c3cc(OCC(=O)Nc4ccc(C)cn4)nn3C)nc2n(CCC)c1=O`: the Ki in test [4] was 1010 nM; in test [3], more than 1000 nM; in test [1] it was more than 1000 nM; in test [2], more than 1000 nM.

`CCCn1c(=O)c2[nH]c(-c3cc(OCC(=O)Nc4ccncc4)nn3C)nc2n(CCC)c1=O`: the Ki in test [3] and in test [2] was more than 1000 nM each time.

On to `CC(C)Cn1c(=O)c2nc(-c3cc(OCC(=O)Nc4ccc(F)cc4)nn3C)[nH]c2n(CC(C)C)c1=O`, for which the Ki in test [3] and in test [2] was more than 1000 nM each time.

Turning to `CCCn1c(=O)c2[nH]c(-c3cc(NC(=O)[C@H](C)c4ccccc4)nn3C)nc2n(CCC)c1=O`, the Ki in test [1] is more than 1000 nM.

In test [5], `CCCn1c(=O)c2[nH]c(-c3cc(NC(=O)Cc4ccc(OCc5ccccc5C(F)(F)F)cc4)nn3C)nc2n(CCC)c1=O` had a Ki of 13 nM.

In turn, `CCCn1c(=O)c2[nH]c(-c3cc(OCC(=O)Nc4ccc(Cl)c(Cl)c4)nn3C)nc2n(CCC)c1=O` came in with a Ki in test [5] of 16 nM. For the same compound, in test [6], the midpoint of inhibition, the IC50, lay at 60 nM.

As to `CCCn1c(=O)c2[nH]c(-c3cc(NC(=O)Cc4ccc(OC)c(OC)c4)nn3C)nc2n(CCC)c1=O`, the Ki in test [5] was 38 nM; in test [1], more than 1000 nM; in test [2], more than 1000 nM.

For `CCCn1c(=O)c2[nH]c(-c3cc(OCC(=O)Nc4ccc(OC)c(OC)c4)no3)nc2n(CCC)c1=O`, the Ki in test [1] is more than 1000 nM.

For `CCCn1c(=O)c2[nH]c(-c3cc(NC(=O)Cc4cc(OC)c(OC)c(OC)c4)nn3C)nc2n(CCC)c1=O`, the Ki in test [4], in test [3], in test [1] and in test [2] was more than 1000 nM each time.

For the compound `CCCn1c(=O)c2[nH]c(-c3cc(NC(=O)Cc4cccc(OC)c4)nn3C)nc2n(CCC)c1=O`, the Ki in test [1] was more than 1000 nM.

`CCCn1c(=O)c2[nH]c(-c3cc(NC(=O)[C@@H](C)c4ccccc4)nn3C)nc2n(CCC)c1=O` yielded a Ki in test [1] of more than 1000 nM.

The compound `Cn1nc(NC(=O)Cc2ccccc2)cc1-c1nc2c([nH]1)c(=O)n(C)c(=O)n2C` showed a Ki in test [1] of more than 1000 nM.

As to `CCCn1c(=O)c2[nH]c(-c3cc(NC(=O)Cc4ccc([N+](=O)[O-])cc4)nn3C)nc2n(CCC)c1=O`, in test [1], the Ki was more than 1000 nM.

Take `CCCn1c(=O)c2[nH]c(-c3cc(N)n(C)n3)nc2n(CCC)c1=O`: the Ki in test [3] and in test [2] was more than 1000 nM each time.

As for `CCCn1c(=O)c2[nH]c(-c3cc(NC(=O)CCC(=O)O)nn3C)nc2n(CCC)c1=O`, the Ki in test [1] was more than 1000 nM.

For `CCCn1c(=O)c2[nH]c(-c3cc(NC(=O)Cc4ccc5c(c4)OCO5)nn3C)nc2n(CCC)c1=O`, the results for the Ki in test [5] and in test [2] were 18 nM and more than 1000 nM, respectively.
